# Measurements: PubChem BioAssay (NCI)
#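 Five compound concentrations were applied to cells in 96-well plates for 48 hours; endpoints were derived by simple linear interpolation of the resulting dose-response curve. GI50 is the concentration that inhibits growth by half. TGI: total growth inhibition.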
# Legend:
# Experiment in all cases: NCI-60 cell line screen, 48 h
# EKVX NSCLC = system: EKVX NSCLC
# MOLT-4 leukemia = system: MOLT-4 leukemia
# HOP-92 NSCLC = system: HOP-92 NSCLC
# 786-0 renal = system: 786-0 renal
# K-562 leukemia = system: K-562 leukemia
# HCT-15 colon = system: HCT-15 colon
# MCF7 breast = system: MCF7 breast
# COLO 205 colon = system: COLO 205 colon
# SN12C renal = system: SN12C renal
# SR leukemia = system: SR leukemia
# HL-60(TB) leukemia = system: HL-60(TB) leukemia
# NCI/ADR-RES ovarian = system: NCI/ADR-RES ovarian
# UACC-62 melanoma = system: UACC-62 melanoma
# MDA-MB-435 = system: MDA-MB-435
# SK-MEL-28 melanoma = system: SK-MEL-28 melanoma
# OVCAR-8 ovarian = system: OVCAR-8 ovarian
# SK-MEL-2 melanoma = system: SK-MEL-2 melanoma
# MDA-MB-231 breast = system: MDA-MB-231 breast
# PC-3 prostate = system: PC-3 prostate
# TK-10 renal = system: TK-10 renal
# HT29 colon = system: HT29 colon
# SNB-19 CNS = system: SNB-19 CNS
# M14 melanoma = system: M14 melanoma
# SK-MEL-5 melanoma = system: SK-MEL-5 melanoma
# SF-539 CNS = system: SF-539 CNS
# NCI-H522 lung = system: NCI-H522 lung
# OVCAR-3 ovarian = system: OVCAR-3 ovarian
# RPMI-8226 leukemia = system: RPMI-8226 leukemia
# UACC-257 melanoma = system: UACC-257 melanoma
# A498 renal = system: A498 renal
# RXF 393 renal = system: RXF 393 renal
# KM12 colon = system: KM12 colon
# T-47D breast = system: T-47D breast
# NCI-H23 lung = system: NCI-H23 lung
# A549 NSCLC = system: A549 NSCLC
# SF-295 CNS = system: SF-295 CNS
# LOX IMVI melanoma = system: LOX IMVI melanoma
# IGROV1 ovarian = system: IGROV1 ovarian
# SW-620 colon = system: SW-620 colon
# NCI-H460 lung = system: NCI-H460 lung
# SK-OV-3 ovarian = system: SK-OV-3 ovarian
# UO-31 renal = system: UO-31 renal
# ACHN renal = system: ACHN renal
# SNB-75 CNS = system: SNB-75 CNS
# U251 CNS = system: U251 CNS
# DU-145 prostate = system: DU-145 prostate
# OVCAR-4 ovarian = system: OVCAR-4 ovarian
# OVCAR-5 ovarian = system: OVCAR-5 ovarian
# CAKI-1 renal = system: CAKI-1 renal
# MALME-3M melanoma = system: MALME-3M melanoma
# CCRF-CEM leukemia = system: CCRF-CEM leukemia
# BT-549 breast = system: BT-549 breast
# HCC-2998 colon = system: HCC-2998 colon
# SF-268 CNS = system: SF-268 CNS
# HOP-62 NSCLC = system: HOP-62 NSCLC
# HS 578T breast = system: HS 578T breast
# NCI-H226 lung = system: NCI-H226 lung
# HCT-116 colon = system: HCT-116 colon
structure (smiles),measurement,setting,value
COc1cc2c3c(n(C)c(=O)c2cc1OC)-c1cc2c(cc1/C3=C\CCCCN)OCO2,GI50,EKVX NSCLC,18.4 µM
same,TGI,EKVX NSCLC,57.2 µM
same,GI50,MOLT-4 leukemia,5.78 µM
same,TGI,MOLT-4 leukemia,> 100 µM
same,GI50,HOP-92 NSCLC,43.5 µM
same,TGI,HOP-92 NSCLC,> 100 µM
same,GI50,786-0 renal,5.23 µM
same,TGI,786-0 renal,19.6 µM
same,GI50,K-562 leukemia,6.22 µM
same,TGI,K-562 leukemia,> 100 µM
same,GI50,HCT-15 colon,25.1 µM
same,TGI,HCT-15 colon,> 100 µM
same,GI50,MCF7 breast,3.46 µM
same,TGI,MCF7 breast,12.7 µM
same,GI50,COLO 205 colon,27.5 µM
same,TGI,COLO 205 colon,> 100 µM
same,GI50,SN12C renal,9.39 µM
same,TGI,SN12C renal,24.4 µM
same,GI50,SR leukemia,3.58 µM
same,TGI,SR leukemia,> 100 µM
same,GI50,HL-60(TB) leukemia,4.68 µM
same,TGI,HL-60(TB) leukemia,> 100 µM
same,GI50,NCI/ADR-RES ovarian,4.74 µM
same,TGI,NCI/ADR-RES ovarian,18.1 µM
same,GI50,UACC-62 melanoma,12.5 µM
same,TGI,UACC-62 melanoma,37.8 µM
same,GI50,MDA-MB-435,5.56 µM
same,TGI,MDA-MB-435,20.3 µM
same,GI50,SK-MEL-28 melanoma,28.1 µM
same,TGI,SK-MEL-28 melanoma,> 100 µM
same,GI50,OVCAR-8 ovarian,3.77 µM
same,TGI,OVCAR-8 ovarian,14.2 µM
same,GI50,SK-MEL-2 melanoma,5.71 µM
same,TGI,SK-MEL-2 melanoma,24.1 µM
same,GI50,MDA-MB-231 breast,2.94 µM
same,TGI,MDA-MB-231 breast,11.4 µM
same,GI50,PC-3 prostate,20 µM
same,TGI,PC-3 prostate,62.1 µM
same,GI50,TK-10 renal,3.95 µM
same,TGI,TK-10 renal,17.6 µM
same,GI50,HT29 colon,7.45 µM
same,TGI,HT29 colon,> 100 µM
same,GI50,SNB-19 CNS,23.9 µM
same,TGI,SNB-19 CNS,71.9 µM
same,GI50,M14 melanoma,5.55 µM
same,TGI,M14 melanoma,19.6 µM
same,GI50,SK-MEL-5 melanoma,13.2 µM
same,TGI,SK-MEL-5 melanoma,27.3 µM
same,GI50,SF-539 CNS,2.83 µM
same,TGI,SF-539 CNS,6.23 µM
same,GI50,NCI-H522 lung,2.02 µM
same,TGI,NCI-H522 lung,9.24 µM
same,GI50,OVCAR-3 ovarian,16.9 µM
same,TGI,OVCAR-3 ovarian,33.4 µM
same,GI50,RPMI-8226 leukemia,4.44 µM
same,TGI,RPMI-8226 leukemia,24.7 µM
same,GI50,UACC-257 melanoma,12.5 µM
same,TGI,UACC-257 melanoma,35.7 µM
same,GI50,A498 renal,9.53 µM
same,TGI,A498 renal,22.6 µM
same,GI50,RXF 393 renal,36 µM
same,TGI,RXF 393 renal,57.1 µM
same,GI50,KM12 colon,1.95 µM
same,TGI,KM12 colon,7.28 µM
same,GI50,T-47D breast,37.7 µM
same,TGI,T-47D breast,> 100 µM
same,GI50,NCI-H23 lung,3.84 µM
same,TGI,NCI-H23 lung,15.3 µM
same,GI50,A549 NSCLC,6.26 µM
same,TGI,A549 NSCLC,27.4 µM
same,GI50,SF-295 CNS,3.56 µM
same,TGI,SF-295 CNS,15.2 µM
same,GI50,LOX IMVI melanoma,12.9 µM
same,TGI,LOX IMVI melanoma,41.1 µM
same,GI50,IGROV1 ovarian,3.12 µM
same,TGI,IGROV1 ovarian,8.53 µM
same,GI50,SW-620 colon,6.36 µM
same,TGI,SW-620 colon,24.8 µM
same,GI50,NCI-H460 lung,5.02 µM
same,TGI,NCI-H460 lung,> 100 µM
same,GI50,SK-OV-3 ovarian,17.1 µM
same,TGI,SK-OV-3 ovarian,46.7 µM
same,GI50,UO-31 renal,3.28 µM
same,TGI,UO-31 renal,13.5 µM
same,GI50,ACHN renal,9.66 µM
same,TGI,ACHN renal,26.3 µM
same,GI50,SNB-75 CNS,3.54 µM
same,TGI,SNB-75 CNS,7.12 µM
same,GI50,U251 CNS,6.04 µM
same,TGI,U251 CNS,21.6 µM
same,GI50,DU-145 prostate,10.5 µM
same,TGI,DU-145 prostate,31.4 µM
same,GI50,OVCAR-4 ovarian,17.2 µM
same,TGI,OVCAR-4 ovarian,57.3 µM
same,GI50,OVCAR-5 ovarian,15.5 µM
same,TGI,OVCAR-5 ovarian,35.4 µM
same,GI50,CAKI-1 renal,4.41 µM
same,TGI,CAKI-1 renal,17.1 µM
Nc1cccc2c1C(=O)N(C1CCC(=O)NC1=O)C2=O (centres undefined),GI50,EKVX NSCLC,> 100 µM
same,TGI,EKVX NSCLC,> 100 µM
same,GI50,MALME-3M melanoma,> 100 µM
same,TGI,MALME-3M melanoma,> 100 µM
same,GI50,MOLT-4 leukemia,> 100 µM
same,TGI,MOLT-4 leukemia,> 100 µM
same,GI50,HOP-92 NSCLC,> 100 µM
same,TGI,HOP-92 NSCLC,> 100 µM
same,GI50,786-0 renal,> 100 µM
same,TGI,786-0 renal,> 100 µM
same,GI50,K-562 leukemia,> 100 µM
same,TGI,K-562 leukemia,> 100 µM
same,GI50,HCT-15 colon,> 100 µM
same,TGI,HCT-15 colon,> 100 µM
same,GI50,MCF7 breast,> 100 µM
same,TGI,MCF7 breast,> 100 µM
same,GI50,COLO 205 colon,> 100 µM
same,TGI,COLO 205 colon,> 100 µM
same,GI50,SN12C renal,> 100 µM
same,TGI,SN12C renal,> 100 µM
same,GI50,SR leukemia,> 100 µM
same,TGI,SR leukemia,> 100 µM
same,GI50,HL-60(TB) leukemia,> 100 µM
same,TGI,HL-60(TB) leukemia,> 100 µM
same,GI50,NCI/ADR-RES ovarian,> 100 µM
same,TGI,NCI/ADR-RES ovarian,> 100 µM
same,GI50,UACC-62 melanoma,> 100 µM
same,TGI,UACC-62 melanoma,> 100 µM
same,GI50,MDA-MB-435,> 100 µM
same,TGI,MDA-MB-435,> 100 µM
same,GI50,SK-MEL-28 melanoma,> 100 µM
same,TGI,SK-MEL-28 melanoma,> 100 µM
same,GI50,OVCAR-8 ovarian,> 100 µM
same,TGI,OVCAR-8 ovarian,> 100 µM
same,GI50,SK-MEL-2 melanoma,> 100 µM
same,TGI,SK-MEL-2 melanoma,> 100 µM
same,GI50,MDA-MB-231 breast,> 100 µM
same,TGI,MDA-MB-231 breast,> 100 µM
same,GI50,CCRF-CEM leukemia,> 100 µM
same,TGI,CCRF-CEM leukemia,> 100 µM
same,GI50,PC-3 prostate,> 100 µM
same,TGI,PC-3 prostate,> 100 µM
same,GI50,TK-10 renal,> 100 µM
same,TGI,TK-10 renal,> 100 µM
same,GI50,HT29 colon,> 100 µM
same,TGI,HT29 colon,> 100 µM
same,GI50,SNB-19 CNS,> 100 µM
same,TGI,SNB-19 CNS,> 100 µM
same,GI50,M14 melanoma,> 100 µM
same,TGI,M14 melanoma,> 100 µM
same,GI50,SK-MEL-5 melanoma,> 100 µM
same,TGI,SK-MEL-5 melanoma,> 100 µM
same,GI50,SF-539 CNS,> 100 µM
same,TGI,SF-539 CNS,> 100 µM
same,GI50,NCI-H522 lung,> 100 µM
same,TGI,NCI-H522 lung,> 100 µM
same,GI50,OVCAR-3 ovarian,> 100 µM
same,TGI,OVCAR-3 ovarian,> 100 µM
same,GI50,BT-549 breast,> 100 µM
same,TGI,BT-549 breast,> 100 µM
same,GI50,RPMI-8226 leukemia,> 100 µM
same,TGI,RPMI-8226 leukemia,> 100 µM
same,GI50,UACC-257 melanoma,> 100 µM
same,TGI,UACC-257 melanoma,> 100 µM
same,GI50,A498 renal,> 100 µM
same,TGI,A498 renal,> 100 µM
same,GI50,RXF 393 renal,> 100 µM
same,TGI,RXF 393 renal,> 100 µM
same,GI50,KM12 colon,> 100 µM
same,TGI,KM12 colon,> 100 µM
same,GI50,T-47D breast,> 100 µM
same,TGI,T-47D breast,> 100 µM
same,GI50,NCI-H23 lung,> 100 µM
same,TGI,NCI-H23 lung,> 100 µM
same,GI50,A549 NSCLC,> 100 µM
same,TGI,A549 NSCLC,> 100 µM
same,GI50,SF-295 CNS,> 100 µM
same,TGI,SF-295 CNS,> 100 µM
same,GI50,LOX IMVI melanoma,> 100 µM
same,TGI,LOX IMVI melanoma,> 100 µM
same,GI50,IGROV1 ovarian,> 100 µM
same,TGI,IGROV1 ovarian,> 100 µM
same,GI50,SW-620 colon,> 100 µM
same,TGI,SW-620 colon,> 100 µM
same,GI50,NCI-H460 lung,> 100 µM
same,TGI,NCI-H460 lung,> 100 µM
same,GI50,HCC-2998 colon,> 100 µM
same,TGI,HCC-2998 colon,> 100 µM
same,GI50,SF-268 CNS,> 100 µM
same,TGI,SF-268 CNS,> 100 µM
same,GI50,SK-OV-3 ovarian,> 100 µM
same,TGI,SK-OV-3 ovarian,> 100 µM
same,GI50,UO-31 renal,> 100 µM
same,TGI,UO-31 renal,> 100 µM
same,GI50,ACHN renal,> 100 µM
same,TGI,ACHN renal,> 100 µM
same,GI50,SNB-75 CNS,> 100 µM
same,TGI,SNB-75 CNS,> 100 µM
same,GI50,HOP-62 NSCLC,> 100 µM
same,TGI,HOP-62 NSCLC,> 100 µM
same,GI50,U251 CNS,> 100 µM
same,TGI,U251 CNS,> 100 µM
same,GI50,HS 578T breast,> 100 µM
same,TGI,HS 578T breast,> 100 µM
same,GI50,NCI-H226 lung,> 100 µM
same,TGI,NCI-H226 lung,> 100 µM
same,GI50,HCT-116 colon,> 100 µM
same,TGI,HCT-116 colon,> 100 µM
same,GI50,DU-145 prostate,> 100 µM
same,TGI,DU-145 prostate,> 100 µM
same,GI50,OVCAR-4 ovarian,> 100 µM
same,TGI,OVCAR-4 ovarian,> 100 µM
same,GI50,OVCAR-5 ovarian,> 100 µM
same,TGI,OVCAR-5 ovarian,> 100 µM
same,GI50,CAKI-1 renal,> 100 µM
same,TGI,CAKI-1 renal,> 100 µM
